Data reported in patent US20180042827A1, “METHOD OF PROTECTING SKIN FROM ULTRAVIOLET RADIATION” (FIC BIOTECH INC., priority 2016, published 2018).
Entries after “also recorded” stand apart in the source; their conditions may differ.

How the values were obtained:
Assay type in all cases: cell-based, human
[1] = test system: HFF3 cells; assay: Intracellular lipid peroxidation (C11-BODIPY 581/591 fluorescence) after UVA irradiation; conditions: pretreated, 50 KJ/m^2 UVA, versus only UVA-treated cells
Protocol: (§1) When cells were seeded in culture dish for overnight incubation, 200 μM of compound (I-1) was added to the cells for 2 hours before UVA irradiation.
(§2) When the ROS attacks the C11-BODIPY^581/591 on the cell membrane, it will emit fluorescent light (excitation light: 488 nm, scattered light: 510-665 nm).
(§3) After treating 10 μM C11-BODIPY^581/591 for 30 minutes at 37° C., the cells were washed with HEPES buffer (4-(2-hydroxyerhyl)-piperazine-1-erhanesulfonic acid, HEPES) and were observed by using the laser scanning confocal microscope.

[2] = test system: HFF1 cells (G6PD deficient skin fibroblast); assay: as above; conditions: pretreated, 50 KJ/m^2 UVA, versus only UVA-treated cells
Protocol: as §1, §2, §3

[3] = test system: HFF-3 cells; assay: Calcium detection of cytoplasm and mitochondria (Fluo-4 / Rhod-2) after UVA irradiation; conditions: 200 μM added prior to UVA (50 KJ/cm^2)
Protocol: as §1
(§4) Calcium mobilization detection dye: 1.5 μM of RHOD-2/AM (rhod-2) is a cell-permeable fluorescent probe for measuring calcium (Ca^2+) in mitochondria (excitation light: 543 nm, scattered light: 581 nm), and 2 μM of FLUO-4/AM (fluo-4) is a cell-permeable fluorescent probe for measuring calcium (Ca^2+) in cytoplasm (excitation light: 488 nm, scattered light: 516 nm).
(§5) HFF-3 and HFF-1 cells were cultivated and irradiated with UVA (50KJ/cm^2). The culture medium was then replaced with new medium and treated with 2 μM Flou-4 and 1.5 μM of Rhod-2 (for the detection of mitochondrial calcium) for 30 minutes at 37° C. in the dark. Rhod-2 is a cationic rhodamine-based indicator probe and it can accumulate preferentially in potential-driven uptake in mitochondria. The resting mitochondrial calcium concentration is generally in the range of 100-150 nM. At this level of calcium, the brownish red fluorescence of Rhod-2 is minimal. However, when large excess of calcium ions are uptaken by the mitochondria, concentration-dependent increases in the intensities of Rhod-2 fluorescence will occur. The phenomenon is a testimony of mitochondrial calcium overload.

[4] = test system: HFF-1 cells (G6PD deficient skin fibroblast); assay: as above; conditions: 200 μM added prior to UVA (50 KJ/cm^2)
Protocol: as §1, §4, §5

[5] = test system: HFF-3 cells; assay: Intracellular ROS detection (DCF-DA fluorescence) after UVA irradiation; conditions: 200 μM added prior to UVA irradiation (25, 50 and 100 KJ/cm^2)
Protocol: as §1
(§6) Reactive oxygen species (ROS) fluorescent dye: when 10 μM of 2′,7′-dichlorodihydrofluorescindiacetate (DCF-DA) enters the cells, DCF trapped is oxidized by the ROS and emits fluorescent light (excitation light: 488 nm, scattered light: 525 nm).
(§7) HFF-3 and HFF-1 cells were cultivated and irradiated with various dosages of UVA (25, 50 and 100 KJ/cm^2). The culture medium was then replaced with new medium and treated with 10 μM of DCF-DA probe for 30 minutes at 37° C. in the dark. Cells were detached by trypsinization, collected by centrifugation and resuspended in PBS. The intracellular ROS, as reflected by the DCF green fluorescence, were then observed using laser scanning confocal microscope.

[6] = test system: HFF-1 cells (G6PD deficient skin fibroblast); assay: as above; conditions: 200 μM added prior to UVA irradiation (25, 50 and 100 KJ/cm^2)
Protocol: as §1, §6, §7

[7] = test system: HFF-3 cells; assay: TUNEL analysis of apoptotic cell death after UVA irradiation; conditions: 200 μM added prior to UVA (50 KJ/cm^2), UVA alone ca 40%
Protocol: as §1
(§8) Apoptotic cell death was assayed by using an Apo-BrdU in situ DNA fragmentation assay kit. This kit measures the fragmented DNA of apoptotic cells by catalytically incorporating fluorescein-12-dUTP at 3′-OH DNA ends using the terminal deoxynucleotidyl transferase enzyme. The fluorescein-12-dUTP-labeled DNA can then be visualized by confocal scanning microscope and quantified by using software.

[8] = test system: HFF-1 cells (G6PD deficient skin fibroblast); assay: as above; conditions: 200 μM added prior to UVA (50 KJ/cm^2), UVA alone ca 80%
Protocol: as §1, §8

[9] = test system: HFF-3 cells; assay: Intracellular glutathione (GSH) depletion (CMF-DA fluorescence) after UVA irradiation; conditions: 200 μM added prior to UVA irradiation (25, 50 and 100 KJ/cm^2)
Protocol: as §1
(§9) Glutathione (GSH) fluorescent dye: 10 μM of 5-chloromethyl fluorescein diacetate (CMF-DA). When CMF-DA enters the cells, the trapped CMF reacts with the GSH to form a fluorescent compound which to emit fluorescent light (excitation light: 492 nm, scattered light: 517 nm).
as §7, with “[…] CMF-DA” for “10 μM of DCF-DA”, “GSH contents,” for “ROS,”, “the” for “the DCF”, “fluorescence intensity of CMF-GSH,” for “fluorescence,”

[10] = test system: HFF-1 cells (G6PD deficient skin fibroblast); assay: as above; conditions: 200 μM added prior to UVA irradiation (25, 50 and 100 KJ/cm^2)
Protocol: as §1, §9
as §7, with “[…] CMF-DA” for “10 μM of DCF-DA”, “GSH contents,” for “ROS,”, “the” for “the DCF”, “fluorescence intensity of CMF-GSH,” for “fluorescence,”

## COC(=O)c1cc(O)c(O)c(O)c1 [compound (I-1), methyl gallate]
[1]
  intracellular lipid peroxidation (green fluorescent intensity of C11-BODIPY 581/591): weaker than that of the only UVA-treated cells; also recorded: significant decline of green fluorescence
[2]
  intracellular lipid peroxidation (green fluorescent intensity of C11-BODIPY 581/591): weaker than that of the only UVA-treated cells; also recorded: significant decline of green fluorescence
[3]
  mitochondrial calcium overload (brownish red fluorescence of Rhod-2): can prevent calcium overload in mitochondria; also recorded: could effectively be suppressed
[4]
  mitochondrial calcium overload (brownish red fluorescence of Rhod-2): drastic decrease in brownish red fluorescence intensity; also recorded: could effectively be suppressed
[5]
  production of intracellular ROS (DCF fluorescence): almost completely suppressed
[6]
  production of intracellular ROS (DCF fluorescence): almost completely suppressed; also recorded: nearly complete suppression of ROS production
[7]
  TUNEL-positive cell population: 8%
[8]
  TUNEL-positive cell population: 18%
[9]
  intracellular GSH depletion (green fluorescence of CMF-GSH): nearly complete protection of GSH depletion; also recorded: nearly complete recovery of green fluorescence
[10]
  intracellular GSH depletion (green fluorescence of CMF-GSH): nearly complete protection of GSH depletion; also recorded: nearly complete recovery of green fluorescence
